# Target: T1, Human Factor XIIa (Homo sapiens, UniProt P00748)
# T1 construct: Proteolytic cleavage of FXII to heavy and light chains of FXIIa dramatically increases catalytic activity; purchased Enzyme Research Laboratories
# T1 sequence (P00748 373-615 limits assumed): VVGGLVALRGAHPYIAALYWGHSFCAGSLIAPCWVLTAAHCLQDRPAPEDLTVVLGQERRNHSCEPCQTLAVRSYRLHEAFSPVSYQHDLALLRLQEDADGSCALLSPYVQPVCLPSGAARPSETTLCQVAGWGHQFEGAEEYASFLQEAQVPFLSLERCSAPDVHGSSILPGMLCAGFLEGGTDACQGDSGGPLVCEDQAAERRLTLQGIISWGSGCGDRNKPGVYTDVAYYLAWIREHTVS
# T1 sequence (P00748 20-372 partner limits assumed): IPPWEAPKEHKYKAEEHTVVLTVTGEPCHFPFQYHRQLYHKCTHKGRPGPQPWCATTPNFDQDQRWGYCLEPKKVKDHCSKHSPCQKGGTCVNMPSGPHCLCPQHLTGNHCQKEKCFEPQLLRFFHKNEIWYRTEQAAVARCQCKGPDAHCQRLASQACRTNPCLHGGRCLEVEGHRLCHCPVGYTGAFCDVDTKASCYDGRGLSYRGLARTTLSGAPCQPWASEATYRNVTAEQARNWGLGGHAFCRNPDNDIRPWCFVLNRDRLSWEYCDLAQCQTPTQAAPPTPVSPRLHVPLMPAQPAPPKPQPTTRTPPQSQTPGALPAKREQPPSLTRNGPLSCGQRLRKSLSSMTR
# Assay: Determination of FXIIa inhibition (fluorogenic substrate H-DPro-Phe-Arg-AFC, IC50 assay)
# Format: biochemical
# Conditions: substrate at Km concentration, 25° C.; category scale; read-out: Human FXII IC50 (nm)
# Method in brief: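 At substrate Km and 25° C., the rate of AFC release from H-DPro-Phe-Arg-AFC by human Factor XIIa was followed for 5 min across compound concentrations. Inhibition was derived as percent of uninhibited rate, giving IC50.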
row,SMILES,IC50
1,"Cn1ccc(OCC23CN(c4cccnc4)C(CNc4cccc5c(N)nccc45)(C2)C3)cc1=O [Example 12064, 4-((1-(((1-aminoisoquinolin-5-yl)amino)methyl)-2-(pyridin-3-yl)-2-azabicyclo[2.1.1]hexan-4-yl)methoxy)-1-methylpyridin-2(1H)-one]",10 to 100 nM
2,"Cc1ccc(OCC23CCOC(CNc4cccc5c(N)nccc45)(C2)C3)nc1 [Example 10956, N5-((5-(((5-methylpyridin-2-yl)oxy)methyl)-2-oxabicyclo[3.1.1]heptan-1-yl)methyl)isoquinoline-1,5-diamine]",1000 to 3000 nM
3,"Nc1nccc2c(NCC34CC(Cn5ccnn5)(CO3)C4)cccc12 [Example 6648, N5-((4-((1H-1,2,3-triazol-1-yl)methyl)-2-oxabicyclo[2.1.1]hexan-1-yl)methyl)isoquinoline-1,5-diamine]",10000 to 40000 nM
4,"Nc1nccc2c(NCC34CC(COc5ccc6nncn6c5)(CCO3)C4)cccc12 [Example 10929, N5-((5-(([1,2,4]triazolo[4,3-a]pyridin-6-yloxy)methyl)-2-oxabicyclo[3.1.1]heptan-1-yl)methyl)isoquinoline-1,5-diamine]",300 to 1000 nM
5,"Nc1nccc2c(NCC34CC(COc5ccc6ncoc6c5)(CCO3)C4)cccc12 [Example 10973, N5-((5-((benzo[d]oxazol-6-yloxy)methyl)-2-oxabicyclo[3.1.1]heptan-1-yl)methyl)isoquinoline-1,5-diamine]",1000 to 3000 nM
6,"Nc1nccc2c(NCC34CC(COc5ccc6ncc(C(F)F)n6c5)(CO3)C4)cccc12 [Example 6644, 5-N-[[4-[[3-(Difluoromethyl)imidazo[1,2-a]pyridin-6-yl]oxymethyl]-2-oxabicyclo[2.1.1]hexan-1-yl]methyl]isoquinoline-1,5-diamine]",300 to 1000 nM
7,"Nc1nccc2c(NCC34CC(COc5ccn6ncnc6c5)(C3)C4)cccc12 [Example 1110, N5-((3-(([1,2,4]triazolo[1,5-a]pyridin-7-yloxy)methyl)bicyclo[1.1.1]pentan-1-yl)methyl)isoquinoline-1,5-diamine]",3000 to 10000 nM
8,"Nc1nccc2c(NCC34CC(COc5cc(C(F)(F)F)c6nccn6c5)(CO3)C4)cccc12 [Example 6630, N5-((4-(((8-(trifluoromethyl)imidazo[1,2-a]pyridin-6-yl)oxy)methyl)-2-oxabicyclo[2.1.1]hexan-1-yl)methyl)isoquinoline-1,5-diamine]",100 to 300 nM
9,"Cc1cnc2ccc(OCC34COC(CNc5ccnc(N)c5)(C3)C4)cn12 [Example 6660, N4-((4-(((3-methylimidazo[1,2-a]pyridin-6-yl)oxy)methyl)-2-oxabicyclo[2.1.1]hexan-1-yl)methyl)pyridine-2,4-diamine]",3000 to 10000 nM
10,"CN1CCc2cc(OCC34CCOC(CNc5cccc6c(N)nccc56)(C3)C4)ccc2C1=O [Example 10939, 6-((1-(((1-aminoisoquinolin-5-yl)amino)methyl)-2-oxabicyclo[3.1.1]heptan-5-yl)methoxy)-2-methyl-3,4-dihydroisoquinolin-1(2H)-one]",300 to 1000 nM
11,"Cn1cc(OCC23CCOC(CNc4cccc5c(N)nccc45)(C2)C3)ccc1=O [Example 10943, 5-((1-(((1-aminoisoquinolin-5-yl)amino)methyl)-2-oxabicyclo[3.1.1]heptan-5-yl)methoxy)-1-methylpyridin-2(1H)-one]",1000 to 3000 nM
12,"Cn1ccc(OCC23CC(CNc4cccc5c(N)nccc45)(CN2CCCc2ccccc2)C3)cc1=O [Example 13015, 4-((4-(((1-aminoisoquinolin-5-yl)amino)methyl)-2-(3-phenylpropyl)-2-azabicyclo[2.1.1]hexan-1-yl)methoxy)-1-methylpyridin-2(1H)-one]",100 to 300 nM
13,"Cc1cc(OCC23CC(CNc4cccc5c(N)nccc45)(C2)C3)cc(=O)n1C [Example 1134, 4-((3-(((1-aminoisoquinolin-5-yl)amino)methyl)bicyclo[1.1.1]pentan-1-yl)methoxy)-1,6-dimethylpyridin-2(1H)-one]",100 to 300 nM
14,"Cn1cc(COC(=O)N2CC3(CNc4cccc5c(N)nccc45)CC2(COc2ccn(C)c(=O)c2)C3)cn1 [Example 13022, (1-methyl-1H-pyrazol-4-yl)methyl 4-(((1-aminoisoquinolin-5-yl)amino)methyl)-1-(((1-methyl-2-oxo-1,2-dihydropyridin-4-yl)oxy)methyl)-2-azabicyclo[2.1.1]hexane-2-carboxylate]",10 to 100 nM
15,"Cn1ccc(OCC23CC(CNc4cccc5c(N)nccc45)(CN2C(=O)OCc2ccccn2)C3)cc1=O [Example 13013, pyridin-2-ylmethyl 4-(((1-aminoisoquinolin-5-yl)amino)methyl)-1-(((1-methyl-2-oxo-1,2-dihydropyridin-4-yl)oxy)methyl)-2-azabicyclo[2.1.1]hexane-2-carboxylate]",100 to 300 nM

# Second part, the compound after the results:
row,IC50,SMILES
1,10 to 100 nM,"Cn1ccc(OCC23CN(C(=O)Cc4ccccc4)C(CNc4cccc5c(N)nccc45)(C2)C3)cc1=O [Example 12028, 4-((1-(((1-aminoisoquinolin-5-yl)amino)methyl)-2-(2-phenylacetyl)-2-azabicyclo[2.1.1]hexan-4-yl)methoxy)-1-methylpyridin-2(1H)-one]"
2,10 to 100 nM,"Cn1ccc(OCC23CN(C(=O)CCc4cccc5cnccc45)C(CNc4cccc5c(N)nccc45)(C2)C3)cc1=O [Example 12047, 4-((1-(((1-aminoisoquinolin-5-yl)amino)methyl)-2-(3-(isoquinolin-5-yl)propanoyl)-2-azabicyclo[2.1.1]hexan-4-yl)methoxy)-1-methylpyridin-2(1H)-one]"
3,100 to 300 nM,"Cn1cc(COC(=O)N2CC3(COc4ccn(C)c(=O)c4)CC2(CNc2cccc4c(N)nccc24)C3)cn1 [Example 12026, (1-methyl-1H-pyrazol-4-yl)methyl 1-(((1-aminoisoquinolin-5-yl)amino)methyl)-4-(((1-methyl-2-oxo-1,2-dihydropyridin-4-yl)oxy)methyl)-2-azabicyclo[2.1.1]hexane-2-carboxylate]"
4,10 to 100 nM,"COc1cccc(CCC(=O)N2CC3(COc4ccn(C)c(=O)c4)CC2(CNc2cccc4c(N)nccc24)C3)c1 [Example 12042, 4-((1-(((1-aminoisoquinolin-5-yl)amino)methyl)-2-(3-(3-methoxyphenyl)propanoyl)-2-azabicyclo[2.1.1]hexan-4-yl)methoxy)-1-methylpyridin-2(1H)-one]"
5,10 to 100 nM,"Cn1ccc(OCC23CN(C(=O)NCc4ccc5occc5c4)C(CNc4cccc5c(N)nccc45)(C2)C3)cc1=O [Example 12070, 1-(((1-aminoisoquinolin-5-yl)amino)methyl)-N-(benzofuran-5-ylmethyl)-4-(((1-methyl-2-oxo-1,2-dihydropyridin-4-yl)oxy)methyl)-2-azabicyclo[2.1.1]hexane-2-carboxamide]"
6,100 to 300 nM,"Cn1ccc(OCC23CC(CNc4cccc5c(N)nccc45)(CN2C(=O)CCc2cccnc2)C3)cc1=O [Example 13010, 4-((4-(((1-aminoisoquinolin-5-yl)amino)methyl)-2-(3-(pyridin-3-yl)propanoyl)-2-azabicyclo[2.1.1]hexan-1-yl)methoxy)-1-methylpyridin-2(1H)-one]"
7,10 to 100 nM,"Cn1ccc(OCC23CN(C(=O)OCc4ccccc4Cl)C(CNc4cccc5c(N)nccc45)(C2)C3)cc1=O [Example 12023, 2-chlorobenzyl 1-(((1-aminoisoquinolin-5-yl)amino)methyl)-4-(((1-methyl-2-oxo-1,2-dihydropyridin-4-yl)oxy)methyl)-2-azabicyclo[2.1.1]hexane-2-carboxylate]"
8,10 to 100 nM,"Cn1ccc(OCC23CN(C(=O)CCc4cccc(C(F)F)c4)C(CNc4cccc5c(N)nccc45)(C2)C3)cc1=O [Example 12048, 4-((1-(((1-aminoisoquinolin-5-yl)amino)methyl)-2-(3-(3-(difluoromethyl)phenyl)propanoyl)-2-azabicyclo[2.1.1]hexan-4-yl)methoxy)-1-methylpyridin-2(1H)-one]"
9,10 to 100 nM,"Cn1ccc(OCC23CN(S(=O)(=O)CCc4ccccc4)C(CNc4cccc5c(N)nccc45)(C2)C3)cc1=O [Example 12014, 4-[[1-[[(1-aminoisoquinolin-5-yl)amino]methyl]-2-(2-phenylethylsulfonyl)-2-azabicyclo[2.1.1]hexan-4-yl]methoxy]-1-methylpyridin-2-one]"
10,1 to 10 nM,"CN(Cc1ccccc1)C(=O)N1CC2(COc3ccn(C)c(=O)c3)CC1(CNc1cccc3c(N)nccc13)C2 [Example 12041, 1-[[(1-Amino-5-isoquinolyl)amino]methyl]-N-benzyl-N-methyl-4-[(1-methyl-2-oxo-4-pyridyl)oxymethyl]-2-azabicyclo[2.1.1]hexane-2-carboxamide]"
11,10 to 100 nM,"COc1ccccc1NC(=O)N1CC2(COc3ccn(C)c(=O)c3)CC1(CNc1cccc3c(N)nccc13)C2 [Example 12059, 1-(((1-aminoisoquinolin-5-yl)amino)methyl)-N-(2-methoxyphenyl)-4-(((1-methyl-2-oxo-1,2-dihydropyridin-4-yl)oxy)methyl)-2-azabicyclo[2.1.1]hexane-2-carboxamide]"

# From patent US20240327412A1, “FACTOR XIIA INHIBITORS” (KALVISTA PHARMACEUTICALS LIMITED, priority 2021, published 2024)
